The test system of this assay is C2C12 muscle cells. Nature of the assay: Analysis of glucose absorption (2-deoxyglucose) in differentiated C2C12 muscle cells. As to conditions: test materials 10 μM, times relative to control group. The class given is cell-based. The procedure:
C2C12 muscle cells were cultured in DMEM (Dulbecco's modified Eagle's medium) containing 10% bovine calf serum. When the cell density increased to about 85 to 90%, the culture medium was replaced with 1% bovine calf serum and cell differentiation was induced for 6 days. Completely differentiated cells were cultured for 3 hours with Krebs-Ringer buffer (KRB) containing 5 mM glucose. The test materials were added at a concentration of 10 μM. 30 minutes later, 0.2 μCi 2-deoxyglucose was added. KRB was removed 20 minutes later and the cells were washed for 3 times with cold PBS. The cells were lysed with 0.5N NaOH and counted using a radioactive counter.
Compound `CCSc1nc(NCc2ccccc2F)c2ccccc2n1` [Compound 39, (2-Ethylsulfanylquinazolino-4-yl)-(2-fluorobenzyl)-amine] registered a Glucose absorption of 0.9. As for `COc1ccc(CNc2nc(-c3ccc(Cl)cc3)nc3ccccc23)cc1` [Compound 261, [2-(4-Chlorophenyl)-quinazolino-4-yl]-(4-methoxybenzyl)-amine], the Glucose absorption came to 1.1.

In the case of `Fc1cccc(CNc2nc(-c3ccccc3)nc3ccccc23)c1` [Compound 63, (3-Fluorobenzyl)-(2-phenylquinazolino-4-yl)-amine], the Glucose absorption is 1.1. To `COc1ccccc1CNc1nc(-c2ccccc2)nc2ccccc12` [Compound 91, (2-Methoxybenzyl)-(2-phenylquinazolino-4-yl)-amine] belongs 1.2; to `CCC(COC)Nc1nc(-c2ccccc2)nc2ccccc12` (centres unmarked) [Compound 104, (1-Methoxymethylpropyl)-(2-phenylquinazolino-4-yl)-amine], 1.0; to `c1ccc(CCNc2nc(-c3cccnc3)nc3ccccc23)cc1` [Compound 239, Phenethyl-(2-pyridino-3-ylquinazolino-4-yl)-amine], 0.5. To `c1ccc(-c2nc(NCCCN3CCOCC3)c3ccccc3n2)cc1` [Compound 156, (3-Morpholino-4-ylpropyl)-(2-phenylquinazolino-4-yl)-amine] belongs 1.1; to `CCSc1nc(NCCN2CCCCC2)c2ccccc2n1` [Compound 44, (2-Ethylsulfanylquinazolino-4-yl)-(2-piperidino-1-ylethyl)-amine], 1.3. On to `c1ccc(-c2nc(NCC3CCCC3)c3ccccc3n2)cc1` [Compound 159, Cyclopentylmethyl-(2-phenylquinazolino-4-yl)-amine], for which the Glucose absorption amounted to 2.6. The compound `Cc1nc(NCCO)c2ccccc2n1` [Compound 174, 2-(2-Methylquinazolino-4-ylamino)-ethanol] returned a Glucose absorption of 1.2. Compound `OCCOCCNc1nc(-c2ccccn2)nc2ccccc12` [Compound 233, 2-[2-(2-Pyridino-2-ylquinazolino-4-ylamino)-ethoxy]-ethanol] came in with a Glucose absorption of 1.4.

Compound `CC(C)(C)c1nc(NCCOCCO)c2ccccc2n1` [Compound 197, 2-[2-(2-tert-Butylquinazolino-4-ylamino)-ethoxy]-ethanol] had a Glucose absorption of 1.3.

Consider `CCCCCCCCCCCc1ccc(Nc2nc(-c3ccccc3)nc3ccccc23)cc1` [Compound 74, (2-Phenylquinazolino-4-yl)-(4-undecyl-phenyl)-amine], for which the Glucose absorption is reported as 0.9.

Compound `CCCCNc1nc(-c2ccccc2)nc2ccccc12` [Compound 56, Butyl-(2-phenylquinazolino-4-yl)-amine] came in with a Glucose absorption of 1.1. Regarding `COc1cccc(CNc2nc(-c3ccccc3)nc3ccccc23)c1` [Compound 90, (3-Methoxybenzyl)-(2-phenylquinazolino-4-yl)-amine], the Glucose absorption stood at 1.4. The same measure for `Fc1ccc(Nc2nc(-c3ccccc3)nc3ccccc23)cc1` [Compound 76, (4-Fluorophenyl)-(2-phenylquinazolino-4-yl)-amine]: 1.0; for `c1ccc(CCCCNc2nc(-c3ccncc3)nc3ccccc23)cc1` [Compound 252, (4-Phenylbutyl)-(2-pyridino-4-ylquinazolino-4-yl)-amine]: 0.9; for `CC(C)c1ccc(Nc2nc(-c3ccccc3)nc3ccccc23)cc1` [Compound 72, (4-Isopropyl-phenyl)-(2-phenylquinazolino-4-yl)-amine]: 1.1. Take `CCSc1nc(NC(C)c2ccccc2)c2ccccc2n1` (centres unmarked) [Compound 23, (2-Ethylsulfanylquinazolino-4-yl)-(1-phenylethyl)-amine]: the Glucose absorption was determined as 0.8.

Consider `Fc1cccc(CCNc2nc(-c3ccncc3)nc3ccccc23)c1` [Compound 256, [2-(3-Fluorophenyl)-ethyl]-(2-pyridino-4-ylquinazolino-4-yl)-amine], for which the Glucose absorption amounted to 0.6. In the case of `Clc1ccc(CNc2nc(-c3ccccc3)nc3ccccc23)cc1Cl` [Compound 89, (3,4-Dichlorobenzyl)-(2-phenylquinazolino-4-yl)-amine], the Glucose absorption came out at 1.4. The same measure for `c1ccc(CNc2nc(-c3ccccn3)nc3ccccc23)cc1` [Compound 223, Benzyl-(2-pyridino-2-ylquinazolino-4-yl)-amine]: 1.7; for `COc1cccc(CNc2nc(-c3ccc(Cl)cc3)nc3ccccc23)c1` [Compound 260, [2-(4-chlorophenyl)-quinazolino-4-yl]-(3-methoxybenzyl)-amine]: 1.4. To `CCSc1nc(NC2CCN(Cc3ccccc3)CC2)c2ccccc2n1` [Compound 41, (1-Benzyl-piperidino-4-yl)-(2-ethylsulfanylquinazolino-4-yl)-amine] belongs 1.1. The same measure for `c1ccc(CNc2nc(-c3ccccc3)nc3ccccc23)cc1` [Compound 86, Benzyl-(2-phenylquinazolino-4-yl)-amine]: 1.4; for `CCSc1nc(NCCCN2CCOCC2)c2ccccc2n1` [Compound 36, (2-Ethylsulfanylquinazolino-4-yl)-(3-morpholino-4-ylpropyl)-amine]: 1.4; for `CC(C)c1nc(NCCOCCO)c2ccccc2n1` [Compound 185, 2-[2-(2-Isopropylquinazolino-4-ylamino)-ethoxy]-ethanol]: 1.4. The compound `OCCNc1nc(-c2ccc(Cl)cc2)nc2ccccc12` [Compound 270, 2-[2-(4-Chlorophenyl)-quinazolino-4-ylamino]-ethanol] displayed a Glucose absorption of 1.1. The same measure for `FC(F)(F)c1cccc(CNc2nc(-c3ccncc3)nc3ccccc23)c1` [Compound 250, (2-Pyridino-4-ylquinazolino-4-yl)-(3-trifluoromethylbenzyl)-amine]: 1.3; for `c1ccc(CCCCNc2nc(-c3ccccc3)nc3ccccc23)cc1` [Compound 52, (4-Phenylbutyl)-(2-phenylquinazolino-4-yl)-amine]: 1.3; for `FC(F)(F)c1cccc(CNc2nc(-c3cccnc3)nc3ccccc23)c1` [Compound 238, (2-Pyridino-3-ylquinazolino-4-yl)-(3-trifluoromethylbenzyl)-amine]: 1.0. `Cc1ccc(CNc2nc(-c3ccccc3)nc3ccccc23)cc1` [Compound 54, (4-Methylbenzyl)-(2-phenylquinazolino-4-yl)-amine] returned a Glucose absorption of 1.2. `COc1cc(CNc2nc(-c3ccccc3)nc3ccccc23)cc(OC)c1OC` [Compound 129, (2-Phenylquinazolino-4-yl)-(3,4,5-trimethoxybenzyl)-amine] registered a Glucose absorption of 1.3. Compound `OCCCCCNc1nc(-c2ccccc2)nc2ccccc12` [Compound 85, 5-(2-Phenylquinazolino-4-ylamino)-pentane-1-ol] yielded a Glucose absorption of 1.0. To `OCCOCCNc1nc(C2CCCCC2)nc2ccccc12` [Compound 209, 2-[2-(2-Cyclohexylquinazolino-4-ylamino)-ethoxy]-ethanol] belongs 1.1; to `Clc1ccc(-c2nc(NCc3ccc4c(c3)OCO4)c3ccccc3n2)cc1` [Compound 266, Benzo[1,3]dioxol-5-ylmethyl-[2-(4-chlorophenyl)-quinazolino-4-yl]-amine], 1.1; to `c1ccc(-c2nc(NCCc3ccccn3)c3ccccc3n2)cc1` [Compound 102, (2-Phenylquinazolino-4-yl)-(2-pyridino-2-ylethyl)-amine], 1.2.

`CC(C)(C)c1nc(NCc2cccc3ccccc23)c2ccccc2n1` [Compound 193, (2-tert-Butylquinazolino-4-yl)-naphthaleno-1-ylmethylamine] returned a Glucose absorption of 1.3. To `c1ccc2c(CNc3nc(-c4ccncc4)nc4ccccc34)cccc2c1` [Compound 253, Naphthaleno-1-ylmethyl-(2-pyridino-4-ylquinazolino-4-yl)-amine] belongs 1.3; to `OCCNc1nc(-c2ccccn2)nc2ccccc12` [Compound 234, 2-(2-Pyridino-2-ylquinazolino-4-ylamino)-ethanol], 1.1.

`C=CCNc1nc(SCC)nc2ccccc12` [Compound 42, Allyl-(2-ethylsulfanylquinazolino-4-yl)-amine] yielded a Glucose absorption of 1.1. The compound `OCCNc1nc(-c2cccnc2)nc2ccccc12` [Compound 246, 2-(2-Pyridino-3-ylquinazolino-4-ylamino)-ethanol] gave a Glucose absorption of 1.2.

In turn, `Cc1nc(NCCOCCO)c2ccccc2n1` [Compound 173, 2-[2-(2-Methylquinazolino-4-ylamino)-ethoxy]-ethanol] came in with a Glucose absorption of 1.3.

On to `COc1cccc(CNc2nc(-c3cccnc3)nc3ccccc23)c1` [Compound 236, (3-Methoxybenzyl)-(2-pyridino-3-ylquinazolino-4-yl)-amine], for which the Glucose absorption came to 1.2. To `OCCOCCNc1nc(Cc2ccccc2)nc2ccccc12` [Compound 221, 2-[2-(2-Benzylquinazolino-4-ylamino)-ethoxy]-ethanol] belongs 1.5. `FC(F)(F)c1ccccc1CNc1nc(-c2ccccc2)nc2ccccc12` [Compound 98, (2-Phenylquinazolino-4-yl)-(2-trifluoromethylbenzyl)-amine] registered a Glucose absorption of 1.2.

As to `COc1ccc(CCNc2nc(-c3ccccc3)nc3ccccc23)cc1` [Compound 124, [2-(4-Methoxyphenyl)-ethyl]-(2-phenylquinazolino-4-yl)-amine], the Glucose absorption stood at 1.4.
